Results published in ChEMBL document CHEMBL1833947, “Synthesis and biological investigation of potential atypical antipsychotics with a tropane core. Part 1” (Eur J Med Chem, 2011).
Calls of active or inactive are those of the source. The calls are words filed in the database; no cut-off is given here.

Experiments:
D(2) dopamine receptor = D(2) dopamine receptor (Rattus norvegicus, UniProt P61169); assay: Displacement of [3H]spiperone from dopamine D2 receptor in rat striatum tissue after 20 mins by scintillation counting; assay type: tissue-based
D(2) dopamine receptor, sequence (P61169 whole entry): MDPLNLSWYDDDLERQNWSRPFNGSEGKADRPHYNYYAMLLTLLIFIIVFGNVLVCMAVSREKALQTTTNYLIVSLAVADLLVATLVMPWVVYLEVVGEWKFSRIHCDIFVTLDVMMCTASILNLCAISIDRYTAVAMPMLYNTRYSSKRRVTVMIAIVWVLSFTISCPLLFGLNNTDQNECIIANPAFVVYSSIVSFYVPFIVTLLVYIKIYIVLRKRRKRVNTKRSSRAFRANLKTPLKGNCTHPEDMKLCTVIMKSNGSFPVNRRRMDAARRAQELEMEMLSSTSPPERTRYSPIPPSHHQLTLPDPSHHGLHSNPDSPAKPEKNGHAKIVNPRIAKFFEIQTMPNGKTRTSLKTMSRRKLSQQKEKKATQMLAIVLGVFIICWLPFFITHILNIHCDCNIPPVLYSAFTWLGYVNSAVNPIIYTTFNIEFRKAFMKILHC

[1] = biological target: 5-hydroxytryptamine receptor 2A (Rattus norvegicus, UniProt P14842); assay: Displacement of [3H]ketanserin from 5HT2A in rat brain cerebral cortex after 20 mins by scintillation counting; assay type: tissue-based
5-hydroxytryptamine receptor 2A, sequence (P14842 whole entry): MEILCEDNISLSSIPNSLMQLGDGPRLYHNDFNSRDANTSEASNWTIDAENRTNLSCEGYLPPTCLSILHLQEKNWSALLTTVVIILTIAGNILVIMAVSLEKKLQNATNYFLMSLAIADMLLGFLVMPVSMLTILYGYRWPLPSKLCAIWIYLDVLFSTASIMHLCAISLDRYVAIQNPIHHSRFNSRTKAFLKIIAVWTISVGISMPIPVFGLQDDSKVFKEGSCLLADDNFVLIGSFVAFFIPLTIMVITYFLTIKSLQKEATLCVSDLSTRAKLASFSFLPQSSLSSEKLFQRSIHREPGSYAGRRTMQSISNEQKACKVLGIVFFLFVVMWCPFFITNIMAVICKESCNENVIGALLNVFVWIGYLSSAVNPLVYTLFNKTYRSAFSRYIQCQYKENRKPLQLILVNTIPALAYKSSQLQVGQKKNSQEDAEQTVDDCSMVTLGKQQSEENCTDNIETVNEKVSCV

[2] = biological target: T1, 5-hydroxytryptamine receptor 1A (Rattus norvegicus, UniProt P19327); assay: Displacement of [3H]8OH-DPAT from 5HT1A in rat brain cerebral cortex after 15 mins by scintillation counting; assay type: tissue-based
T1 sequence (P19327 whole entry): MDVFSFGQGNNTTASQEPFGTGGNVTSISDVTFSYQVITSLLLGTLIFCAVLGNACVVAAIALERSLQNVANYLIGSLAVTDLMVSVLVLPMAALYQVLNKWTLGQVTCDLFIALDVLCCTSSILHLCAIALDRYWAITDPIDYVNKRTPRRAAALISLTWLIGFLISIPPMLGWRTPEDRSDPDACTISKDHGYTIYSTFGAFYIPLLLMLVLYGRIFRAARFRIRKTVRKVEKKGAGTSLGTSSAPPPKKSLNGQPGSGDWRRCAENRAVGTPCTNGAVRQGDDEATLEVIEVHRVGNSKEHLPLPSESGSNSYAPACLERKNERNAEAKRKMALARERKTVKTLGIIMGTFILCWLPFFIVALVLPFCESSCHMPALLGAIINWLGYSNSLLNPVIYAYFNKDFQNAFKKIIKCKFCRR

Mus musculus [3] = assay: Antipsychotic activity in mouse assessed as reversal of apomorphine-induced mesh climbing response at 50 mg/kg, ip administered 20 mins prior to apomorphine challenge measured after 120 mins
Mus musculus [4] = assay: Antipsychotic activity in mouse assessed as reversal of DOI-induced head twitches at 10 mg/kg, ip administered 30 mins before DOI challenge; assay type: functional; settings: route intraperitoneal
Mus musculus [5] = assay: Antipsychotic activity in mouse assessed as reversal of DOI-induced head twitches at 20 mg/kg, ip administered 30 mins before DOI challenge; assay type: functional; settings: route intraperitoneal
Mus musculus [6] = assay: Antipsychotic activity in mouse assessed as reversal of DOI-induced head twitches at 5 mg/kg, ip administered 30 mins before DOI challenge; assay type: functional; settings: route intraperitoneal
Mus musculus [7] = assay: Antipsychotic activity in mouse assessed as reversal of apomorphine-induced mesh climbing response at 10 mg/kg, ip administered 10 mins prior to apomorphine challenge measured after 20 mins; assay type: functional, organism-based; design: dose 10 mg/kg
Mus musculus [8] = assay: Antipsychotic activity in mouse assessed as reversal of apomorphine-induced mesh climbing response at 50 mg/kg, ip administered 10 mins prior to apomorphine challenge measured after 30 mins; assay type: functional, organism-based; design: dose 50 mg/kg

Row | SMILES | Ki (D(2) dopamine receptor) [nM] | Ki [1] [nM] | Ki [2] [nM] | Activity (Mus musculus [3]) | Activity (Mus musculus [4]) [%] | Activity (Mus musculus [5]) [%] | Activity (Mus musculus [6]) [%] | Activity (Mus musculus [7]) | Activity (Mus musculus [8])
1 | COc1cccc(C(=O)N[C@H]2CC3CC[C@H](C2)N3CC2CCCO2)c1 (single isomer, unassigned) | > 100000 | 1100 | 10300 |  |  |  |  |  | 
2 | COc1ccc(Cl)cc1C(=O)N[C@@H]1CC2CC[C@H](C1)N2CC1CCCO1 (single isomer, unassigned) | 2400 | 120 | 4600 |  |  |  |  |  | 
3 | COc1ccc(F)cc1C(=O)N[C@@H]1CC2CC[C@H](C1)N2CC1CCCO1 (single isomer, unassigned) | 12400 | 1100 | 10100 |  |  |  |  |  | 
4 | O=C(N[C@@H]1CC2CC[C@H](C1)N2CC1CCCO1)c1cccc2ccccc12 (single isomer, unassigned) | 4000 | 394 | 3100 |  |  |  |  |  | 
5 | O=C(N[C@@H]1CC2CC[C@H](C1)N2CC1CCCO1)c1ccc2ccccc2c1 (single isomer, unassigned) | 1200 | 12.3 | 3300 | Active | 63 | 73 | 26 |  | 
6 | O=C(N[C@@H]1CC2CC[C@H](C1)N2Cc1ccccc1)c1cccc2ccccc12 (single isomer, unassigned) | 2900 | 394 | 532 |  |  |  |  |  | 
7 | COc1cccc(C(=O)N[C@@H]2CC3CC[C@H](C2)N3Cc2ccccn2)c1OC (single isomer, unassigned) | 9.3 | 1000 | 1400 |  |  |  |  |  | 
8 | COc1cccc(C(=O)N[C@@H]2CC3CC[C@H](C2)N3Cc2cccnc2)c1OC (single isomer, unassigned) | 11.5 | 956 | 3300 |  |  |  |  |  | 
9 | COc1cccc(C(=O)N[C@@H]2CC3CC[C@H](C2)N3Cc2ccncc2)c1OC (single isomer, unassigned) | 28.3 | 700 | 2500 |  |  |  |  |  | 
10 | COc1cccc(C(=O)N[C@@H]2CC3CC[C@H](C2)N3Cc2ccco2)c1OC (single isomer, unassigned; 4b) [listing 1 of 2 here] | 26.3 | 745 | 3000 |  | 28 | 47 | 33 |  | 
11 | COc1cccc(C(=O)N[C@@H]2CC3CC[C@H](C2)N3Cc2ccco2)c1OC (single isomer, unassigned; 4b) [listing 2 of 2 here] |  |  |  | Active |  |  |  | inactive | Active
12 | COc1cccc(C(=O)N[C@@H]2CC3CC[C@H](C2)N3Cc2ccco2)c1OC (single isomer, unassigned; 14a) | > 100000 | 2500 | > 100000 |  |  |  |  |  | 
13 | COc1ccc(F)cc1C(=O)N[C@H]1C[C@H]2CC[C@@H](C1)N2Cc1ccco1 (stereo in doubt; 14b) | 44000 | 7000 | > 100000 |  |  |  |  |  | 
